Assay results from patent US8906829B2, “Synergistic algicidal compositions including hydrazone derivatives and copper” (Dow AgroSciences LLC, priority 2010, dated 2014).
Blank lines part the entries; values can stand above or below the compound they belong to.

Experiments:
C. reinhardtii = experiment: Effect of copper on activity of metal-hydrazone complexes: growth inhibition of C. reinhardtii in TAP Cu minus / TAP Cu plus medium (Example 13); assay type: cell-based, Chlamydomonas reinhardtii; settings: for % Inhn. Minus Copper Observed / % Inhn. Plus Copper Observed: C. reinhardtii growth inhibition; for % Inhn. Minus Copper Observed: TAP Cu minus medium; for % Inhn. Plus Copper Observed / % Inhn. Plus Copper Predicted: TAP Cu plus medium; for % Inhn. Plus Copper Predicted: calculated by Colby formula from minus-copper result and inhibition by copper chloride alone
Experimental: In vitro toxicity assays against C. reinhardtii CC-1928 (wild type mt+137c green in dark subclone) obtained from the Chlamydomonas Resource Center at Duke University were conducted using TAP liquid growth medium described by Gorman and Levine Proc. Natl. Acad. Sci. USA 1965, 54, 1665-1669 except that CuSO4.5H2O, normally included as a component of Hutner's trace element stock solution (Hutner et al. Proc. Am. Philos. Soc. 1950, 94, 152-170), was omitted. The TAP medium lacking Cu (TAP Cu minus) was prepared by adding 400 mg NH4Cl, 10 mL of 100× Tris-Acetate (242 g Tris-base and 100 mL glacial acetic acid in 1000 mL milli Q water), and 8.3 mL of 120.5× phosphate buffer (14.34 g K2HPO4 and 7.26 g KH2PO4 in 1000 mL milli Q water) to milli Q water to make a total volume of 1 liter. The medium was treated with 0.5 g Chelex 100 resin (Bio-Rad Analytical grade, 50-100 mesh, sodium form, cat#142-2822) by stirring at room temperature for 1 hour. 900 mL were decanted and 45.9 mg of CaCl2.2H2O, 90 mg of MgSO4.7H2O and 0.9 mL Hutner's trace elements lacking CuSO4.5H2O were added and the solution was filter-sterilized. Medium containing copper (TAP Cu plus) was prepared by adding CuCl2.2H2O to the TAP Cu minus medium at 20 μM. Test compounds were dissolved in dimethylsulfoxide (DMSO) at 2 mg/mL then dilutions in TAP Cu minus and TAP Cu plus media were prepared in sterilized microcentrifuge tubes at 2 μg/mL. 100 μL aliquots of diluted compound were dispensed into flat-bottomed 96-well microtiter plates. C. reinhardtii was maintained under 12 h of light on TAP agar plates at 18° C. A loopful of cells was added to 50 mL of TAP Cu minus medium and the culture incubated with shaking at 200 rpm at 27° C. for 24 h. The culture (10 to 20 mL aliquot) was centrifuged in a bench centrifuge at 2000 rpm for 2 min. The resulting cell pellet was resuspended in 5 mL sterile milli Q water (which had been treated with Chelex 100 resin using 0.5 g resin per liter of water by stirring at room temperature for 1 h), and recentrifuged. The cells were resuspended in TAP Cu minus medium, and the suspension adjusted to 2×10^5 spores per mL. Microtiter plates containing compounds as described above were inoculated with 100 μL of this cell suspension and the plates incubated at 27° C. for 48 h before assessing algal growth by measuring light scattering in a NepheloStar plate-reader. Growth inhibition was determined by comparing growth in the presence of test compound with growth in control wells lacking test compound. The effect of copper on activity of metal-hydrazone complexes towards C. reinhardtii was evaluated by comparing their activity in TAP Cu minus and TAP Cu plus media as described in Example 10 (compound concentrations were selected which gave low inhibition in TAP Cu minus medium). Growth inhibition was determined by comparing growth in the presence of test compound with growth in control wells lacking test compound. Results for growth inhibition by test compounds in TAP Cu plus medium (% Inhn Plus Copper Observed) were compared with predicted values (% Inhn Plus Copper Predicted) that were calculated using the formula set forth by S. R. Colby in Weeds 1967, 15, 20-22 based on results obtained for the same compounds in TAP Cu minus medium (% Inhn Minus Copper Observed) and the inhibition attributed to copper chloride alone, as determined by comparing growth in TAP Cu minus and TAP Cu plus media without any test compound across experiments.

[1] = C. reinhardtii, test concn. 0.5 μg/mL
[2] = C. reinhardtii, test concn. 0.25 μg/mL

SMILES: C/C(=N\NC(=O)c1ccc(Cl)cc1)c1cc(Cl)cc(Cl)c1O [Compound 12]
melting point: 260 to 262 °C

SMILES: O=C(NN=Cc1cc(Cl)cc(Cl)c1O)c1ccccc1.O=C(NN=Cc1cc(Cl)cc(Cl)c1O)c1ccccc1.[Cl-].[Cl-].[Zn+2] [Compound 78]
% Inhn. Minus Copper Observed (C. reinhardtii; test concn. 0.5 μg/mL): −9% | % Inhn. Plus Copper Observed (C. reinhardtii; test concn. 0.5 μg/mL): 87% | % Inhn. Plus Copper Predicted (C. reinhardtii; [1]): −22%

SMILES: O=C(N/N=C/c1cc(Cl)cc(Cl)c1O)c1ccccc1.O=C(N/N=C/c1cc(Cl)cc(Cl)c1O)c1ccccc1.[Cl-].[Cl-].[Cu+2] [Compound 76]
% Inhn. Minus Copper Observed (C. reinhardtii; test concn. 0.5 μg/mL): 3% | % Inhn. Plus Copper Observed (C. reinhardtii; test concn. 0.5 μg/mL): 89% | % Inhn. Plus Copper Predicted (C. reinhardtii; [1]): −10%

SMILES: [Cl][Cu][Cl] [CuCl2, Copper chloride, reference compound]
% Inhn. attributed to copper chloride alone (C. reinhardtii; C. reinhardtii, CuCl2 10 μM, growth in TAP Cu plus vs TAP Cu minus medium without test compound, across experiments): −12.9%

SMILES: CC(=O)[O-].CC(=O)[O-].O=C(N/N=C/c1cc(Cl)cc(Cl)c1O)c1ccccc1.[Cu+2] [Compound 72]
% Inhn. Minus Copper Observed (C. reinhardtii; test concn. 0.25 μg/mL): 79% | % Inhn. Plus Copper Observed (C. reinhardtii; test concn. 0.25 μg/mL): 83% | % Inhn. Plus Copper Predicted (C. reinhardtii; [2]): 66%

SMILES: O=C(N/N=C/c1ccc(Cl)c(Cl)c1O)c1ccccc1 [Compound 21]
melting point: 249 to 252 °C

SMILES: O=C(N/N=C/c1cc(Cl)cc(Cl)c1O)c1ccccc1.[Cl-].[Cl-].[Cu+2] [Compound 75]
% Inhn. Minus Copper Observed (C. reinhardtii; test concn. 0.25 μg/mL): 18% | % Inhn. Plus Copper Observed (C. reinhardtii; test concn. 0.25 μg/mL): 59% | % Inhn. Plus Copper Predicted (C. reinhardtii; [2]): 5%

SMILES: O=C(N/N=C/c1cc(Cl)cc(Cl)c1O)c1ccccc1.O=C(N/N=C/c1cc(Cl)cc(Cl)c1O)c1ccccc1.O=S(=O)([O-])[O-].[Cu+2] [Compound 74]
% Inhn. Minus Copper Observed (C. reinhardtii; test concn. 0.25 μg/mL): −9% | % Inhn. Plus Copper Observed (C. reinhardtii; test concn. 0.25 μg/mL): 82% | % Inhn. Plus Copper Predicted (C. reinhardtii; [2]): −22%

SMILES: CC(=O)[O-].CC(=O)[O-].O=C(N/N=C/c1cc(Cl)cc(Cl)c1O)c1ccccc1.O=C(N/N=C/c1cc(Cl)cc(Cl)c1O)c1ccccc1.[Cu+2] [Compound 73]
% Inhn. Minus Copper Observed (C. reinhardtii; test concn. 0.25 μg/mL): 23% | % Inhn. Plus Copper Observed (C. reinhardtii; test concn. 0.25 μg/mL): 87% | % Inhn. Plus Copper Predicted (C. reinhardtii; [2]): 10%

SMILES: O=C(N/N=C/c1cc(Cl)cc(Cl)c1O)c1ccccc1.O=C(N/N=C/c1cc(Cl)cc(Cl)c1O)c1ccccc1.[Cl-].[Cl-].[Mn+2] [Compound 77]
% Inhn. Minus Copper Observed (C. reinhardtii; test concn. 0.5 μg/mL): −5% | % Inhn. Plus Copper Observed (C. reinhardtii; test concn. 0.5 μg/mL): 93% | % Inhn. Plus Copper Predicted (C. reinhardtii; [1]): −18%

Further lines, results first:

melting point: 271 to 273 °C
SMILES: O=C(N/N=C/c1c(Cl)ccc(Cl)c1O)c1ccc(Cl)cc1 [Compound 45]

melting point: 236 to 238 °C
SMILES: O=C(N/N=C/c1c(C(F)(F)F)ccc(Cl)c1O)c1ccc(Cl)cc1 [Compound 56]

melting point: 233 to 236 °C
SMILES: O=C(N/N=C/c1cc(C(F)(F)F)cc(C(F)(F)F)c1O)c1ccc(Cl)cc1 [Compound 32]

melting point: 257 to 260 °C
SMILES: O=C(N/N=C/c1cccc(Cl)c1O)c1ccc(Cl)cc1 [Compound 52]

melting point: 225 to 226 °C
SMILES: O=C(N/N=C/c1cc(Cl)cc(C(F)(F)F)c1O)c1ccccc1 [Compound 27]

melting point: 262 to 264 °C
SMILES: C/C(=N\NC(=O)c1ccc(C)cc1)c1cc(Cl)cc(Cl)c1O [Compound 26]

melting point: 221 to 223 °C
SMILES: C/C(=N\NC(=O)c1cccc(C)c1)c1cc(Cl)cc(Cl)c1O [Compound 25, 3-methyl-benzoic acid [1-(3,5-dichloro-2-hydroxyphenyl)-ethylidene]-hydrazide]
